We go through two compounds from patent publication US20210308103A1, “TASK-1 INHIBITORS FOR TREATMENT OF ATRIAL ARRHYTHMIAS” (Universität Heidelberg, priority 2018, published 2021).

Bounds are passed on as bounds.

The IC50 is the concentration that inhibits the measured activity by half. A high value points to weaker potency in that assay.

The target in experiment [1] is TASK-1 (Homo sapiens, UniProt O14649). Description: TASK-1 current inhibition, patch-clamp in human atrial cardiomyocytes. The note with it: cardiomyocytes from heart auricles of patients with sinus rhythm, FIG. 2. The class given is cell-based. More on the design: human atrial cardiomyocytes isolated from heart auricles of patients with sinus rhythm; endogenous in cells; host or cells: human atrial cardiomyocytes from heart auricles of patients with sinus rhythm. An excerpt:
FIG. 2: Effects of ketodoxapram and doxapram in human atrial cardiomyocytes recorded by voltage-clamp measurements.
Background: Patch clamp records ionic current or voltage across a cell membrane.

The target of experiment [2] is porcine TASK-1 (Sus scrofa, UniProt A0A286ZMZ4). Kind of experiment: TASK-1 current inhibition, voltage clamp in Xenopus laevis oocytes (porcine channel). The class given is cell-based. The note with it: FIG. 1A. From the text:
FIG. 1: Inhibitory effects of doxapram and ketodoxapram on TASK-1 K-ion channels, recorded by voltage-clamp measurements in Xenopus laevis oocytes. A) Concentration-effect curve for doxapram on porcine TASK-1; B) Concentration-effect curve for doxapram on human TASK-1; C) Concentration-effect curve for ketodoxapram on human TASK-1; […] E) Inhibition of TASK-1 by doxapram, ketodoxapnram, and mixtures thereof. Concentration-response curves for ketodoxapram and doxapram. TASK-1 current inhibition was recorded by voltage clamp measurements in Xenopus laevis oocytes according to standard protocols.

Experiment [3] deals with atrial fibrillation (AF) in humans. Description: Cardioversion of atrial fibrillation in humans. The class given is in vivo, human. The note with it: injection via peripheral venous catheter, dose adapted to body weight. The method, then: For cardioversion of atrial fibrillation (AF) in humans, doxapram can be injected via a peripheral venous catheter. The dose will be adapted to the body weight of the patient. Cardioversion is achieved within a few minutes (<30 minutes). The ECG of the patient is continuously monitored to detect the presence of atrial fibrillation (AF) or successful cardioversion. In case of an unsuccessful cardioversion, a second dose can be applied. If AF is present after applying the second dose, a conventional electrical cardioversion can be performed. To prevent AF episodes, patients can receive repeated a maintenance doses adapted to the body weight for oral or intravenous application.

porcine TASK-1, sequence (A0A286ZMZ4 1-401): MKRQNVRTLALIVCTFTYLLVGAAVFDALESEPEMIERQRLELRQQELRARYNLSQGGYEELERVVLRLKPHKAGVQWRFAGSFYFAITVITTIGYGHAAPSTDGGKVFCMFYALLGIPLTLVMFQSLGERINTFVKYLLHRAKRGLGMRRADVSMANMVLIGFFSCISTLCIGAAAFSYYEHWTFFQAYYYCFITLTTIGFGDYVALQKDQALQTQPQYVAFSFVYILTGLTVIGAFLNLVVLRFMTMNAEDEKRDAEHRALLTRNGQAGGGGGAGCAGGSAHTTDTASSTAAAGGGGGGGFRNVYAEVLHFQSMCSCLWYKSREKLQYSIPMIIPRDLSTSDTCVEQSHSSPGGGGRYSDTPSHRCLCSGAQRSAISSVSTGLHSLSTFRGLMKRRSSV
TASK-1, sequence (O14649 whole entry): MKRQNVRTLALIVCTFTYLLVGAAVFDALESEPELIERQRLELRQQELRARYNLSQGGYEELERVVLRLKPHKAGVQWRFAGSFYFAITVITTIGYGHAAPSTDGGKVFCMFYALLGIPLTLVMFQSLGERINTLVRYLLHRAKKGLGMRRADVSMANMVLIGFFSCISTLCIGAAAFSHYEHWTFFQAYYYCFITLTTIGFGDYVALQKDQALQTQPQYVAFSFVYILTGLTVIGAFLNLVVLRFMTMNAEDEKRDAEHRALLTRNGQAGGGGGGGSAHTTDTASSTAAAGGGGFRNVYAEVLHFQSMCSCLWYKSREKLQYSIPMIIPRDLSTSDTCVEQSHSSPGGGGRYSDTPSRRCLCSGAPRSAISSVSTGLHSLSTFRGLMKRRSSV

With `CCN1CC(CCN2CCOCC2=O)C(c2ccccc2)(c2ccccc2)C1=O` (stereo not drawn) [ketodoxapram, 4-(2-(1-ethyl-5-oxo-4,4-diphenyl-3-pyrrolidinyl)ethyl)-3-morpholinone], the “TASK-1 inhibition compared with doxapram” value in experiment [1] is reported as “significantly stronger than inhibition by doxapram”. Regarding `CCN1CC(CCN2CCOCC2)C(c2ccccc2)(c2ccccc2)C1=O` (stereo not drawn) [doxapram, 1-ethyl-4-(2-morpholin-4-ylethyl)-3,3-diphenyl-pyrrolidin-2-one], in experiment [2], the IC50 stood at 1 µM. The compound also registered a Time to cardioversion in experiment [3] of less than 30 min.
